# According to publication PMC6979384, “Characterization of the plant homeodomain (PHD) reader family for their histone tail interactions” (Epigenetics & Chromatin, 2020):
# Where no end group is shown, it is not given here.
# How the values were obtained:
# Test in all cases: Histone peptide microarray
# Type in all cases: binding, human
# MORC3 (CW) = tested on: MORC3 (CW)
# Outline: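 Each reader, produced as a GST fusion and purified, was tested at 0.5 μM on synthetic histone peptides (293 in total) carrying single or combinatorial marks. Intensities averaged over four replicates.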
# PHF21A = tested on: PHF21A
# Outline: (§1)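 GST-PHD reader, 0.5 μM, probed on 293-peptide histone array (single/combinatorial PTMs); optimized array protocol; signal = mean ± SD, n = 4.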
# RAG2 = tested on: RAG2
# Outline: as §1
# PHF2 = tested on: PHF2
# Outline: as §1
# BPTF (PB) = tested on: BPTF (PB)
# Outline: as §1
# KDM4C (TTP) = tested on: KDM4C (TTP)
# Outline: as §1
# KDM7A = tested on: KDM7A
# Outline: as §1
# CHD5 (PPCC) = tested on: CHD5 (PPCC)
# Outline: as §1
# DIDO1 = tested on: DIDO1
# Outline: as §1
# PHF8 = tested on: PHF8
# Outline: as §1
# ING3 = tested on: ING3
# Outline: as §1
# KDM5B (3) = tested on: KDM5B (3)
# Outline: as §1
# SP140L = tested on: SP140L
# Outline: as §1
# PHF13 = tested on: PHF13
# Outline: as §1
# KDM5B (1) = tested on: KDM5B (1)
# Outline: as §1
# TAF3 = tested on: TAF3
# Outline: as §1
# MLL5 = tested on: MLL5
# Outline: as §1
# CHD4 (PPCC) = tested on: CHD4 (PPCC)
# Outline: as §1
# BAZ2B = tested on: BAZ2B
# Outline: as §1
# ING1 = tested on: ING1
# Outline: as §1
# KDM5A (1) = tested on: KDM5A (1)
# Outline: as §1
# ING4 = tested on: ING4
# Outline: as §1
# PHRF1 (RP) = tested on: PHRF1 (RP)
# Outline: as §1
# DPF2 (PPC2W2) = tested on: DPF2 (PPC2W2)
# Outline: as §1
# ING2 = tested on: ING2
# Outline: as §1
# KDM5A (3) = tested on: KDM5A (3)
# Outline: as §1
# TRIM66 (PB) = tested on: TRIM66 (PB)
# Outline: as §1
# ING5 = tested on: ING5
# Outline: as §1
# CHD5 (PCC) = tested on: CHD5 (PCC)
# Outline: as §1
# AIRE (PP) = tested on: AIRE (PP)
# Outline: as §1
# PHF23 = tested on: PHF23
# Outline: as §1
# [1] = histone peptide array, GST-tagged reader, arrays performed twice, n of 4
# [2] = histone peptide array, GST-tagged reader, PB = PHD + Bromodomain, arrays performed twice, n of 4
# [3] = histone peptide array, GST-tagged reader, PPCC = Dual PHD + Dual Chromodomain, arrays performed twice, n of 4
substance,measurement,setting,value
H3.3K27vl (15-34): H3.3 15-34,Array Heatmap value (peptide array signal),"MORC3 (CW); MORC3 (CW), sheet ""Array Heatmap"", each array performed twice, total n = 4",0.3607
same,Array Heatmap value (peptide array signal),"PHF21A; PHF21A, sheet ""Array Heatmap"", each array performed twice, total n = 4",0.4671
same,Array Heatmap value (peptide array signal),"RAG2; RAG2, sheet ""Array Heatmap"", each array performed twice, total n = 4",0.2413
same,Array Heatmap value (peptide array signal),"PHF2; PHF2, sheet ""Array Heatmap"", each array performed twice, total n = 4",0.5263
same,Array Heatmap value (peptide array signal),"BPTF (PB); BPTF (PB), sheet ""Array Heatmap"", each array performed twice, total n = 4",0.3408
same,Array Heatmap value (peptide array signal),"KDM4C (TTP); KDM4C (TTP), sheet ""Array Heatmap"", each array performed twice, total n = 4",0.4488
same,Array Heatmap value (peptide array signal),"KDM7A; KDM7A, sheet ""Array Heatmap"", each array performed twice, total n = 4",0.3156
same,Array Heatmap value (peptide array signal),"CHD5 (PPCC); CHD5 (PPCC), sheet ""Array Heatmap"", each array performed twice, total n = 4",0.5207
same,Array Heatmap value (peptide array signal),"DIDO1; DIDO1, sheet ""Array Heatmap"", each array performed twice, total n = 4",0.7045
same,Array Heatmap value (peptide array signal),"PHF8; PHF8, sheet ""Array Heatmap"", each array performed twice, total n = 4",0.3696
same,Array Heatmap value (peptide array signal),"ING3; ING3, sheet ""Array Heatmap"", each array performed twice, total n = 4",0.4849
same,Array Heatmap value (peptide array signal),"KDM5B (3); KDM5B (3), sheet ""Array Heatmap"", each array performed twice, total n = 4",0.4603
same,Array Heatmap value (peptide array signal),"SP140L; SP140L, sheet ""Array Heatmap"", each array performed twice, total n = 4",0.3739
same,Array Heatmap value (peptide array signal),"PHF13; PHF13, sheet ""Array Heatmap"", each array performed twice, total n = 4",0.5845
same,Array Heatmap value (peptide array signal),"KDM5B (1); KDM5B (1), sheet ""Array Heatmap"", each array performed twice, total n = 4",0.5524
same,Array Heatmap value (peptide array signal),"TAF3; TAF3, sheet ""Array Heatmap"", each array performed twice, total n = 4",0.2402
same,Array Heatmap value (peptide array signal),"MLL5; MLL5, sheet ""Array Heatmap"", each array performed twice, total n = 4",0.5405
same,Array Heatmap value (peptide array signal),"CHD4 (PPCC); CHD4 (PPCC), sheet ""Array Heatmap"", each array performed twice, total n = 4",0.5729
same,Array Heatmap value (peptide array signal),"BAZ2B; BAZ2B, sheet ""Array Heatmap"", each array performed twice, total n = 4",0.4362
same,Array Heatmap value (peptide array signal),"ING1; ING1, sheet ""Array Heatmap"", each array performed twice, total n = 4",0.5627
same,Array Heatmap value (peptide array signal),"KDM5A (1); KDM5A (1), sheet ""Array Heatmap"", each array performed twice, total n = 4",0.4391
same,Array Heatmap value (peptide array signal),"ING4; ING4, sheet ""Array Heatmap"", each array performed twice, total n = 4",0.4471
same,Array Heatmap value (peptide array signal),"PHRF1 (RP); PHRF1 (RP), sheet ""Array Heatmap"", each array performed twice, total n = 4",0.4435
same,Array Heatmap value (peptide array signal),"DPF2 (PPC2W2); DPF2 (PPC2W2), sheet ""Array Heatmap"", each array performed twice, total n = 4",0.6907
same,Array Heatmap value (peptide array signal),"ING2; ING2, sheet ""Array Heatmap"", each array performed twice, total n = 4",0.6055
same,Array Heatmap value (peptide array signal),"KDM5A (3); KDM5A (3), sheet ""Array Heatmap"", each array performed twice, total n = 4",0.423
same,Array Heatmap value (peptide array signal),"TRIM66 (PB); TRIM66 (PB), sheet ""Array Heatmap"", each array performed twice, total n = 4",0.5686
same,Array Heatmap value (peptide array signal),"ING5; ING5, sheet ""Array Heatmap"", each array performed twice, total n = 4",0.3413
same,Array Heatmap value (peptide array signal),"CHD5 (PCC); CHD5 (PCC), sheet ""Array Heatmap"", each array performed twice, total n = 4",0.7909
same,Array Heatmap value (peptide array signal),"AIRE (PP); AIRE (PP), sheet ""Array Heatmap"", each array performed twice, total n = 4",0.3881
same,Array Heatmap value (peptide array signal),"PHF23; PHF23, sheet ""Array Heatmap"", each array performed twice, total n = 4",0.5229
"H3.3K36ac (27-45): H3.3 27-45 (KSAPSTGGVK(Ac)KPHRYRPGT; UniProt P84243 28-46, looked up, fragment)","Array Heatmap signal, MORC3 (CW)","MORC3 (CW); histone peptide array, GST-tagged reader, CW = CW-type Zn-finger, arrays performed twice, n of 4",0.2989
same,"Array Heatmap signal, PHF21A",PHF21A; [1],0.4713
same,"Array Heatmap signal, RAG2",RAG2; [1],0.2614
same,"Array Heatmap signal, PHF2",PHF2; [1],0.4404
same,"Array Heatmap signal, BPTF (PB)",BPTF (PB); [2],0.3342
same,"Array Heatmap signal, KDM4C (TTP)","KDM4C (TTP); histone peptide array, GST-tagged reader, TTP = Tandem Tudor domain + PHD, arrays performed twice, n of 4",0.5383
same,"Array Heatmap signal, KDM7A",KDM7A; [1],0.4861
same,"Array Heatmap signal, CHD5 (PPCC)",CHD5 (PPCC); [3],0.5516
same,"Array Heatmap signal, DIDO1",DIDO1; [1],0.652
same,"Array Heatmap signal, PHF8",PHF8; [1],0.3248
same,"Array Heatmap signal, ING3",ING3; [1],0.4435
same,"Array Heatmap signal, KDM5B (3)",KDM5B (3); [1],0.5076
same,"Array Heatmap signal, SP140L",SP140L; [1],0.378
same,"Array Heatmap signal, PHF13",PHF13; [1],0.6099
same,"Array Heatmap signal, KDM5B (1)",KDM5B (1); [1],0.6658
same,"Array Heatmap signal, TAF3",TAF3; [1],0.2777
same,"Array Heatmap signal, MLL5",MLL5; [1],0.5589
same,"Array Heatmap signal, CHD4 (PPCC)",CHD4 (PPCC); [3],0.5592
same,"Array Heatmap signal, BAZ2B",BAZ2B; [1],0.4933
same,"Array Heatmap signal, ING1",ING1; [1],0.4834
same,"Array Heatmap signal, KDM5A (1)",KDM5A (1); [1],0.4872
same,"Array Heatmap signal, ING4",ING4; [1],0.4648
same,"Array Heatmap signal, PHRF1 (RP)",PHRF1 (RP); [1],0.3938
same,"Array Heatmap signal, DPF2 (PPC2W2)","DPF2 (PPC2W2); histone peptide array, GST-tagged reader, PPC2W2 = Dual PHD + C2W2-type Zn-finger, arrays performed twice, n of 4",0.6599
same,"Array Heatmap signal, ING2",ING2; [1],0.5814
same,"Array Heatmap signal, KDM5A (3)",KDM5A (3); [1],0.4209
same,"Array Heatmap signal, TRIM66 (PB)",TRIM66 (PB); [2],0.5797
same,"Array Heatmap signal, ING5",ING5; [1],0.3709
same,"Array Heatmap signal, CHD5 (PCC)","CHD5 (PCC); histone peptide array, GST-tagged reader, PCC = PHD + Dual Chromodomain, arrays performed twice, n of 4",0.818
same,"Array Heatmap signal, AIRE (PP)",AIRE (PP); [1],0.5459
same,"Array Heatmap signal, PHF23",PHF23; [1],0.4952
